ChEMBL document CHEMBL5226329, “Synthetic and computational efforts towards the development of peptidomimetics and small-molecule SARS-CoV 3CLpro inhibitors” (Bioorg Med Chem, 2021)
Where a SMILES comes first, the peptide text is derived from it. The star is where a group is joined. Cbz = O=C(OCc1ccccc1)*; CF3 = FC(F)(F)*

Columns and labels:
[1] = Inhibition of Severe acute respiratory syndrome coronavirus proteinase 3C by FRET assay; design: species or system Severe acute respiratory syndrome-related coronavirus
[2] = Inhibition of Severe acute respiratory syndrome coronavirus proteinase 3C using Dabcy-KTSAVLQSGFRKME-Edans peptide as a substrate incubated for 10 mins by fluorescence based assay; design: species or system Severe acute respiratory syndrome-related coronavirus
[3] = Inhibition of Severe acute respiratory syndrome coronavirus proteinase 3C using Abz-SVTLQSG-Tyr(NO2)R peptide as a substrate; design: species or system Severe acute respiratory syndrome-related coronavirus
[4] = Inhibition of Severe acute respiratory syndrome coronavirus proteinase 3C using Dabcy-KTSAVLQSGFRKME-Edans peptide as a substrate; design: species or system Severe acute respiratory syndrome-related coronavirus
[5] = Inhibition of Severe acute respiratory syndrome coronavirus proteinase 3C using (Dabcyl-KTSAVLQSGFRKME-Edans peptide as a substrate by fluorescence based assay; design: species or system Severe acute respiratory syndrome-related coronavirus
[6] = Inhibition of Severe acute respiratory syndrome coronavirus proteinase 3C using (Dabcyl-KTSAVLQSGFRKME-Edans peptide as a substrate assessed as inhibition constant by fluorescence based assay; design: species or system Severe acute respiratory syndrome-related coronavirus
[7] = Inhibition of Severe acute respiratory syndrome coronavirus proteinase 3C using EDANS-Val-Asn-Ser-Thr-Leu-Gln-Ser-Gly-Leu-Arg-Lys-(Dabcyl)-Met substrate incubated for 1 hr by fluorescence based assay; design: species or system Severe acute respiratory syndrome-related coronavirus
[8] = Inhibition of Severe acute respiratory syndrome coronavirus proteinase 3C assessed as inhibition constant by spectrophotometry assay; design: species or system Severe acute respiratory syndrome-related coronavirus
[9] = Inhibition of recombinant Hepatitis A virus proteinase 3C using Ac-Leu-Ala-Ala-OH as a substrate expressed in Escherichia coli incubated for 15 mins by SDS-PAGE assay; design: species or system Hepatovirus A

O=C(/C=C/c1ccccc1)Nc1ccccc1SC(=O)/C=C/c1ccccc1
IC50 [1]: 1060 nM | IC50 [2]: 1060 nM

CC(=O)N[C@H](C(=O)N[C@H](C(=O)N[C@@H](CC(C)C)C(=O)N[C@@H](C[C@@H]1CCNC1=O)C(=O)Cn1[nH]c(=O)c2c([N+](=O)[O-])cccc2c1=O)C(C)OCc1ccccc1)C(C)C (stereo not given in full)
IC50 [3]: 600 nM

O=C[C@H](C[C@@H]1CCNC1=O)NC(=O)[C@H](Cc1ccccc1)NC(=O)/C=C/c1ccc(Cl)cc1F
IC50 [4]: 200 nM

CN(C)c1ccc(C(=O)N[C@@H](Cc2ccccc2)C(=O)Nc2ccc([N+](=O)[O-])cc2Cl)cc1
IC50 [5]: 60 nM | Ki [6]: 30 nM

CN(C)CCCSc1ccccc1NC(=O)/C=C/c1ccccc1 [CINANSERIN]
IC50 [7]: 19000 nM

CC(C)C[C@H](NC(=O)[C@@H](NC(=O)OCc1ccccc1)C(C)C)C(=O)N[C@@H](CCC(=O)O)C(=O)C(F)(F)F (Cbz-Val-Leu-Glu-CF3)
Ki [8]: 116000 nM

CC(=O)N[C@@H](CC(C)C)C(=O)N[C@@H](C)C(=O)N[C@@H](C)C(=O)N[C@@H](C[C@@H]1CCNC1=O)C(=O)Cn1[nH]c(=O)c2c([N+](=O)[O-])cccc2c1=O
IC50 [9]: 1600 nM

CC(=O)N[C@@H](CC(C)C)C(=O)N[C@@H](C)C(=O)N[C@@H](C)C(=O)N[C@@H](CCC(=O)N(C)C)C(=O)Cn1[nH]c(=O)c2ccccc2c1=O
IC50 [9]: 13000 nM
